Source: PubChem BioAssay AID1963850 (Molecular Pharmacology Branch, DTP, NCI, 2024)

Tested on: 192522-019-R-J2-PDC complex tumor spheroid viability
Assay: Anticancer human tumor 192522-019-R-J2-PDC patient-derived colon adenocarcinoma cell line growth inhibition [POLQ]
Details: for IC50: curve of first compound; for viability, T/C: stronger effect = lower value
Protocol: Multicellular complex tumor spheroid response to Polymerase (POL) inhibitors (novobiocin, ART-558, RP6685) in combination with a variety of drugs and investigational agents in selected tumor cell lines
The POL inhibitors (novobiocin, ART-558, and RP6685) were evaluated both individually and in combination with standard of care and investigational anticancer small molecules within a complex spheroid model of solid tumors. . Complex spheroids include a stromal component modeled by human endothelial cells (HUVEC) and fibroblasts modeled by human mesenchymal stem cells (MSCs). The concentration ranges selected for each drug and investigational agent were based upon clinically achievable concentrations if the clinical Cmax of the agent was known.
Compounds. The drugs and investigational agents: novobiocin (NSC847541), ART-558 (NSC835418), RP-6685 (NSC848927), peposertib (NSC802822), ceralasertib (NSC780249), elimusertib (NSC800525), camonsertib (NSC841442), AZD-1390 (NSC803789), olaparib (NSC753686), talazoparib (NSC767125), rucaparib (NSC756644), sotorasib (NSC818433), MRTX-1133 (NSC836407), SN-38 (NSC673596), topotecan (NSC609699), epotoside (NSC141540), doxorubicin (NSC123127), gemcitabine (NSC613327), 5-fluorouracil (NSC19893), paclitaxel (NSC125973), vemurafenib (NSC761431), MSA-2 (NSC828583), SN-011 (NSC837082), adavosertib (NSC754352), prexasertib (NSC758257), carboplatin (NSC241240) and oxaliplatin (NSC266046), were obtained from the National Cancer Institute (NCI) Developmental Therapeutics Program Chemical Repository (21). The FDA-approved anticancer drug set is available from the Developmental Therapeutics Program at https://dtp.cancer.gov/organization/dscb/obtaining/. […] The stock solutions were prepared in dimethyl sulfoxide (DMSO, Sigma-Aldrich, St. Louis, MO, cat. D2650), except for the platinum compounds which were prepared in saline (Quality Biological, Gaithersburg, MD, cat. 114-055-101), at 800-fold the tested concentration and stored at -70 degrees C prior to their use. All drugs and investigational agents were tested over a range starting from a high concentration at or near the clinical Cmax and decreasing in half-log increments. If the clinical Cmax for an agent had not been determined, the highest concentration tested was 10 microM, except for SN-38, which was tested at a high concentration of 1 microM.
Cell Culture. All cells were maintained in an incubator at 37 degrees C and 5% CO2 with 95% humidity. The PDC lines were cultured according to standard operating procedures established by the NCI PDMR (https://pdmr.cancer.gov). Table 3 of the manuscript, lists the cell lines along with the number of the three cell types plated to form the mct-spheroids and media for tumor cell growth. After thawing, all PDC lines, except 997537-175-T-J1-PDC and 415267-285-R-J2-PDC, were cultured in Matrigel-coated flasks prepared with a working solution of 1X Ham's F-12 nutrient mix, without supplementation (Thermo Fisher Scientific, cat. 11765054), 100 U/mL penicillin-streptomycin (Thermo Fisher Scientific, cat. 15140122), and 2.5% Matrigel (Corning Inc., Corning, NY, cat. 354248) for the first three passages. The two PDC lines 997537-175-T-J1-PDC and 415267-285-R-J2-PDC were cultured on uncoated flasks. The 857933-349-R-J2-PDC line was cultured in 6C/Colon 1B media containing advanced DMEM/F-12 (Thermo Fisher Scientific, cat. 12634028), 10 mM HEPES (Thermo Fisher Scientific, cat. 15630080), 1X GlutaMAX supplement (Thermo Fisher Scientific, cat. 35050061), 0.1 mg/mL primocin (InvivoGen, San Diego, CA, cat. ant-pm-2), 10% defined fetal bovine serum, heat inactivated (HyClone Laboratories Inc., Logan, UT, cat. SH30070.03HI), 50% L-WRN conditioned media (ATCC, cat. CRL-3276), 1.25 mM N-Acetyl-L-cysteine (Sigma-Aldrich, cat. A9165), 10 mM nicotinamide (Sigma-Aldrich, cat. N0636), 1X B-27 supplement (Thermo Fisher Scientific, cat. 17504044), 1X N-2 supplement (Thermo Fisher Scientific, cat. […]

[1] = second compound 0.0316 µM, first compound 0.0316 µM
[2] = second compound 0.0316 µM, first compound 0.1 µM
[3] = second compound 0.0316 µM, first compound 0.316 µM
[4] = second compound 0.0316 µM, first compound 1 µM
[5] = second compound 0.0316 µM, first compound 3.16 µM
[6] = second compound 0.0316 µM, first compound 10 µM
[7] = second compound 0.1 µM, first compound 0.0316 µM
[8] = second compound 0.1 µM, first compound 0.1 µM
[9] = second compound 0.1 µM, first compound 0.316 µM
[10] = second compound 0.1 µM, first compound 1 µM
[11] = second compound 0.1 µM, first compound 3.16 µM
[12] = second compound 0.1 µM, first compound 10 µM
[13] = second compound 0.316 µM, first compound 0.0316 µM
[14] = second compound 0.316 µM, first compound 0.1 µM
[15] = second compound 0.316 µM, first compound 0.316 µM
[16] = second compound 0.316 µM, first compound 1 µM
[17] = second compound 0.316 µM, first compound 3.16 µM
[18] = second compound 0.316 µM, first compound 10 µM
[19] = second compound 1 µM, first compound 0.0316 µM
[20] = second compound 1 µM, first compound 0.1 µM
[21] = second compound 1 µM, first compound 0.316 µM
[22] = second compound 1 µM, first compound 1 µM
[23] = second compound 1 µM, first compound 3.16 µM
[24] = second compound 1 µM, first compound 10 µM
[25] = second compound 3.16 µM, first compound 0.0316 µM
[26] = second compound 3.16 µM, first compound 0.1 µM
[27] = second compound 3.16 µM, first compound 0.316 µM
[28] = second compound 3.16 µM, first compound 1 µM
[29] = second compound 3.16 µM, first compound 3.16 µM
[30] = second compound 3.16 µM, first compound 10 µM
[31] = second compound 10 µM, first compound 0.0316 µM
[32] = second compound 10 µM, first compound 0.1 µM
[33] = second compound 10 µM, first compound 0.316 µM
[34] = second compound 10 µM, first compound 1 µM
[35] = second compound 10 µM, first compound 3.16 µM
[36] = second compound 10 µM, first compound 10 µM
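Note: spheroids exposed to drugs for seven days before reading.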
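Throughout, for viability, T/C: 100% = DMSO vehicle control viability in luminescence.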

## CC1COCCN1c1cc(-c2ccnn2C)c2ccnc(-c3ccn[nH]3)c2n1 (centres undefined) + Cc1cccc(N(C)C(=O)C2C(O)CCN2c2nc(C)cc(C(F)(F)F)c2C#N)c1
Second compound 0.0316 µM
  IC50: 359 nM
Second compound 0.1 µM
  IC50: 287 nM
Second compound 0.316 µM
  IC50: 397 nM
Second compound 1 µM
  IC50: 428 nM
Second compound 3.16 µM
  IC50: 402 nM
Second compound 10 µM
  IC50: 373 nM
[1]
  viability, T/C: 101%
[2]
  viability, T/C: 73%
[3]
  viability, T/C: 55.6%
[4]
  viability, T/C: 32.6%
[5]
  viability, T/C: 43.4%
[6]
  viability, T/C: 47.4%
[7]
  viability, T/C: 108%
[8]
  viability, T/C: 76.8%
[9]
  viability, T/C: 49.4%
[10]
  viability, T/C: 32.8%
[11]
  viability, T/C: 42.1%
[12]
  viability, T/C: 52.4%
[13]
  viability, T/C: 100%
[14]
  viability, T/C: 77.2%
[15]
  viability, T/C: 56.5%
[16]
  viability, T/C: 32.5%
[17]
  viability, T/C: 37.9%
[18]
  viability, T/C: 48.8%
[19]
  viability, T/C: 91.4%
[20]
  viability, T/C: 89.2%
[21]
  viability, T/C: 53.1%
[22]
  viability, T/C: 33%
[23]
  viability, T/C: 37.7%
[24]
  viability, T/C: 54.1%
[25]
  viability, T/C: 95%
[26]
  viability, T/C: 84%
[27]
  viability, T/C: 51.7%
[28]
  viability, T/C: 36.3%
[29]
  viability, T/C: 44%
[30]
  viability, T/C: 57.9%
[31]
  viability, T/C: 94.9%
[32]
  viability, T/C: 83.1%
[33]
  viability, T/C: 51.9%
[34]
  viability, T/C: 33.8%
[35]
  viability, T/C: 44.2%
[36]
  viability, T/C: 56.8%

## CC1COCCN1c1cc(C2(S(C)(=N)=O)CC2)nc(-c2ccnc3[nH]ccc23)n1 (centres undefined) + Cc1cccc(N(C)C(=O)C2C(O)CCN2c2nc(C)cc(C(F)(F)F)c2C#N)c1
Second compound 0.0316 µM
  IC50: 4750 nM
Second compound 0.1 µM
  IC50: 4150 nM
Second compound 0.316 µM
  IC50: 5850 nM
Second compound 1 µM
  IC50: 5720 nM
Second compound 3.16 µM
  IC50: 7680 nM
Second compound 10 µM
  IC50: 7210 nM
[1]
  viability, T/C: 112%
[2]
  viability, T/C: 88%
[3]
  viability, T/C: 92.8%
[4]
  viability, T/C: 83.8%
[5]
  viability, T/C: 59.9%
[6]
  viability, T/C: 30.1%
[7]
  viability, T/C: 101%
[8]
  viability, T/C: 97.8%
[9]
  viability, T/C: 97.7%
[10]
  viability, T/C: 89.2%
[11]
  viability, T/C: 54.8%
[12]
  viability, T/C: 34.2%
[13]
  viability, T/C: 106%
[14]
  viability, T/C: 105%
[15]
  viability, T/C: 105%
[16]
  viability, T/C: 90.1%
[17]
  viability, T/C: 64.5%
[18]
  viability, T/C: 37.6%
[19]
  viability, T/C: 97.6%
[20]
  viability, T/C: 99.2%
[21]
  viability, T/C: 96%
[22]
  viability, T/C: 98.1%
[23]
  viability, T/C: 64.3%
[24]
  viability, T/C: 36.5%
[25]
  viability, T/C: 104%
[26]
  viability, T/C: 100%
[27]
  viability, T/C: 103%
[28]
  viability, T/C: 91.9%
[29]
  viability, T/C: 78.7%
[30]
  viability, T/C: 41.4%
[31]
  viability, T/C: 95.5%
[32]
  viability, T/C: 106%
[33]
  viability, T/C: 113%
[34]
  viability, T/C: 98.9%
[35]
  viability, T/C: 75.7%
[36]
  viability, T/C: 39.8%
